# According to patent US20110224232A1 (Board of Regents, The University of Texas System, priority 2008, published 2011):
# Where two headings read alike, the source gives them in different places.
# Legend:
# [1] = Aerodynamic droplet size characterization, AERONEB Pro nebulizer and eight-stage cascade impactor; type: physicochemical
# Description: The performance of an inhalable formulation of the invention was evaluated using an AERONEB® Pro nebulizer and a cascade impactor. Aerodynamic droplet size distributions were determined using an adapted USP Apparatus 1 nonviable eight-stage cascade impactor (Thermo-Anderson, Smyrna, Ga.) with a spacer.
# Aerodynamic droplet size distributions were determined using a USP Apparatus 1 nonviable eight-stage cascade impactor (Thermo-Anderson, Symrna, Ga.) to quantify total emitted dose (TED) from the nebulizer output, mass median aerodynamic diameter (MMAD), geometric standard deviation (GSD), and percentage droplets with an aerodynamic diameter less than 4.7 micrometer (defined as the percentage fine particle fraction or FPF). The aerodynamic droplet size distribution was conducted as adapted from the guidelines described in USP 30 Section 601: Aerosols, Nasal Sprays, Metered-dose Inhalers, and Dry Powder Inhalers.
# [2] = Aqueous and phase solubility of voriconazole with SAE-CD; type: physicochemical
structure (smiles),measurement,setting,value
"CC(c1ncncc1F)C(O)(Cn1cncn1)c1ccc(F)cc1F (centres unmarked) [Voriconazole, 2-(2,4-difluorophenyl)-3-(5-fluoropyrimidin-4-yl)-1-(1H-1,2,4-triazol-1-yl)butan-2-ol]",FPF (fine particle fraction),"[1]; Average Results of Test 1 and 2, 6.25 mg/mL",> 70%
same,"estimated TED, based on measured residual volumes",[1]; all dosing during the survival study,25.44 mg
same,solubility,"[2]; water with SAE-CD, aqueous with cosolvent or surfactant or cyclodextrin, thermodynamic from solid, Voriconazole (mg/ml) at saturated solubility, SAE-CD 43.26 mg/ml (r4)",3.34 mg/mL
same,solubility,"[2]; water with SAE-CD, aqueous with cosolvent or surfactant or cyclodextrin, thermodynamic from solid, Voriconazole (mg/ml) at saturated solubility, SAE-CD 43.26 mg/ml as printed (r8)",35.1 mg/mL
same,solubility,"[2]; water with SAE-CD, aqueous with cosolvent or surfactant or cyclodextrin, thermodynamic from solid, Voriconazole (mg/ml) at saturated solubility, SAE-CD 108.15 mg/ml",8.39 mg/mL
same,solubility,"[2]; water with SAE-CD, aqueous with cosolvent or surfactant or cyclodextrin, thermodynamic from solid, Voriconazole (mg/ml) at saturated solubility, SAE-CD 216.3 mg/ml",17.3 mg/mL
same,solubility,"[2]; water with SAE-CD, aqueous with cosolvent or surfactant or cyclodextrin, thermodynamic from solid, Voriconazole (mg/ml) at saturated solubility, SAE-CD 324.45 mg/ml",26.5 mg/mL
same,solubility,"[2]; water, room temperature, absence of water soluble cyclodextrin derivative, read-out: aqueous solubility",0.68 to 0.69 mg/mL
